Measured values reported in the supplement of paper PMC10307832.

Columns and labels:
Experiment in all cases: relative viability (nuclei count vs DMSO), 5 days (fraction); higher = more cells survive
Alisertib = compound: COc1cc(Nc2ncc3c(n2)-c2ccc(Cl)cc2C(c2c(F)cccc2OC)=NC3)ccc1C(=O)O [Alisertib]
Summary of the method: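 Lung cancer cell lines in 1536-well plates were exposed by pinning to five library-drug doses (not always all listed) √10 apart, following an overnight hold at 37 °C. MetaXpress counted Hoechst-stained nuclei from 4× images taken after 5 days without medium change. Viability is the median ratio of treated-well to vehicle-well nuclei across plates. Plates required control CV below 25% and at least one doubling.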

Alisertib + Trametinib = compound: COc1cc(Nc2ncc3c(n2)-c2ccc(Cl)cc2C(c2c(F)cccc2OC)=NC3)ccc1C(=O)O [Alisertib] + CC(=O)Nc1cccc(-n2c(=O)n(C3CC3)c(=O)c3c(Nc4ccc(I)cc4F)n(C)c(=O)c(C)c32)c1 [Trametinib] (partner 0.02 µM)
Summary of the method: (§1)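 Lung cancer cell lines were seeded in 1536-well plates and dosed by pin tool the next day, with either a single drug or a fixed anchor-drug dose combined with five library-drug doses (not always all listed) spaced in √10 steps. Five days later, one step fixed the cells and stained their nuclei (final 0.05% Triton X-100, 1% formaldehyde, 1 ug/ml Hoechst), and nuclei were counted on 4× images. Relative viability is the nuclei count in treated wells divided by the count in vehicle wells, and each value is the median of duplicate plates.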

Alisertib + OSI-027 = compound: COc1cc(Nc2ncc3c(n2)-c2ccc(Cl)cc2C(c2c(F)cccc2OC)=NC3)ccc1C(=O)O [Alisertib] + COc1cccc2cc(-c3nc([C@H]4CC[C@H](C(=O)O)CC4)n4ncnc(N)c34)[nH]c12 [OSI-027] (partner 0.5 µM)
Summary of the method: as §1

Alisertib + Phenformin = compound: COc1cc(Nc2ncc3c(n2)-c2ccc(Cl)cc2C(c2c(F)cccc2OC)=NC3)ccc1C(=O)O [Alisertib] + N=C(N)NC(=N)NCCc1ccccc1 [Phenformin] (partner 250 µM)
Summary of the method: as §1

| Cell Line | relative viability (Alisertib; 0.005 µM) | relative viability (Alisertib; 0.01581 µM) | relative viability (Alisertib; 0.05 µM) | relative viability (Alisertib; 0.1581 µM) | relative viability (Alisertib; 0.5 µM) | relative viability (Alisertib + Trametinib; first compound 0.005 µM) | relative viability (Alisertib + Trametinib; first compound 0.01581 µM) | relative viability (Alisertib + Trametinib; first compound 0.05 µM) | relative viability (Alisertib + Trametinib; first compound 0.1581 µM) | relative viability (Alisertib + Trametinib; first compound 0.5 µM) | relative viability (Alisertib + OSI-027; first compound 0.005 µM) | relative viability (Alisertib + OSI-027; first compound 0.01581 µM) | relative viability (Alisertib + OSI-027; first compound 0.05 µM) | relative viability (Alisertib + OSI-027; first compound 0.1581 µM) | relative viability (Alisertib + OSI-027; first compound 0.5 µM) | relative viability (Alisertib + Phenformin; first compound 0.005 µM) | relative viability (Alisertib + Phenformin; first compound 0.01581 µM) | relative viability (Alisertib + Phenformin; first compound 0.05 µM) | relative viability (Alisertib + Phenformin; first compound 0.1581 µM) | relative viability (Alisertib + Phenformin; first compound 0.5 µM) |
| --- | --- | --- | --- | --- | --- | --- | --- | --- | --- | --- | --- | --- | --- | --- | --- | --- | --- | --- | --- | --- |
| PC-14 | 0.827 | 0.846 | 0.584 | 0.156 | 0.0817 | 0.757 | 0.56 | 0.385 | 0.234 | 0.0465 | 0.659 | 0.8 | 0.393 | 0.0786 | 0.049 | 0.481 | 0.453 | 0.363 | 0.0963 | 0.0647 |
| RERF-LC-KJ | 0.929 | 0.792 | 0.597 | 0.254 | 0.247 | 0.872 | 0.819 | 0.357 | 0.301 | 0.198 | 0.539 | 0.468 | 0.354 | 0.181 | 0.191 | 0.382 | 0.377 | 0.246 | 0.219 | 0.233 |
| SK-LU-1 | 0.856 | 0.802 | 0.447 | 0.333 | 0.232 | 0.484 | 0.457 | 0.203 | 0.275 | 0.279 | 0.369 | 0.233 | 0.182 | 0.18 | 0.163 | 0.455 | 0.462 | 0.22 | 0.21 | 0.142 |
| SK-MES-1 | 0.913 | 0.947 | 0.561 | 0.326 | 0.16 | 0.525 | 0.556 | 0.603 | 0.468 | 0.183 | 0.563 | 0.572 | 0.276 | 0.21 | 0.117 | 0.643 | 0.684 | 0.502 | 0.38 | 0.146 |
| SW 1573 | 0.919 | 0.644 | 0.372 | 0.213 | 0.147 | 0.512 | 0.533 | 0.121 | 0.119 | 0.104 | 0.556 | 0.5 | 0.284 | 0.148 | 0.102 | 0.371 | 0.256 | 0.178 | 0.113 | 0.0928 |
| UMC-11 | 0.437 | 0.3 | 0.211 | 0.176 | 0.186 | 0.344 | 0.246 | 0.15 | 0.148 | 0.185 | 0.328 | 0.219 | 0.165 | 0.175 | 0.189 | 0.235 | 0.192 | 0.176 | 0.174 | 0.164 |
